Results taken from BindingDB's records for doi:10.1210/endo.135.6.7988476 (Mcgill University, 1994).
Bridge positions count the residues as written; N and C are the ends. Square brackets hold non-standard residues; d marks the D form. Peptide text beside a SMILES is read from it. * marks the point of attachment. NH(1-naphthylmethyl) = c1ccc2c(CN*)cccc2c1; Phe(4-Cl) = N[C@@H](Cc1ccc(Cl)cc1)C(=O)O; dPhe(4-Cl) = N[C@H](Cc1ccc(Cl)cc1)C(=O)O; 2Nal = N[C@@H](Cc1ccc2ccccc2c1)C(=O)O; d1Nal = N[C@H](Cc1cccc2ccccc12)C(=O)O; d2Nal = N[C@H](Cc1ccc2ccccc2c1)C(=O)O; 1Nal = N[CH](Cc1cccc2ccccc12)C(=O)O; Thr(ol) = C[CH](O)[CH](N)CO; Abu = CC[C@H](N)C(=O)O

Key:
[1] = biological target: Somatostatin receptor type 1 (Homo sapiens, UniProt P30872)
[2] = biological target: Somatostatin receptor type 3 (Homo sapiens, UniProt P32745)
[3] = biological target: Somatostatin receptor type 2 (Homo sapiens, UniProt P30874)
[4] = biological target: Somatostatin receptor type 4 (Homo sapiens, UniProt P31391)
Chain of Somatostatin receptor type 4 (P31391 whole entry): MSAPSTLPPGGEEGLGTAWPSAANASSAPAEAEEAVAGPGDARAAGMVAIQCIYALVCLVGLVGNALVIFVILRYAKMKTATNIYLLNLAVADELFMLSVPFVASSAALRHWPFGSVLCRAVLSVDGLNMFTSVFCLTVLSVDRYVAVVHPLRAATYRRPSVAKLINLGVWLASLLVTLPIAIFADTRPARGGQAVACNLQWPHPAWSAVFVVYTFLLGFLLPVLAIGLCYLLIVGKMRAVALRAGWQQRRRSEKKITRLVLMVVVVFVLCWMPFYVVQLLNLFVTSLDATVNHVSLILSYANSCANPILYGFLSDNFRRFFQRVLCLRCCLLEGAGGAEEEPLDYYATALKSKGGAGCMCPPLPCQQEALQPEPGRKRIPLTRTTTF

Chain of Somatostatin receptor type 3 (P32745 whole entry): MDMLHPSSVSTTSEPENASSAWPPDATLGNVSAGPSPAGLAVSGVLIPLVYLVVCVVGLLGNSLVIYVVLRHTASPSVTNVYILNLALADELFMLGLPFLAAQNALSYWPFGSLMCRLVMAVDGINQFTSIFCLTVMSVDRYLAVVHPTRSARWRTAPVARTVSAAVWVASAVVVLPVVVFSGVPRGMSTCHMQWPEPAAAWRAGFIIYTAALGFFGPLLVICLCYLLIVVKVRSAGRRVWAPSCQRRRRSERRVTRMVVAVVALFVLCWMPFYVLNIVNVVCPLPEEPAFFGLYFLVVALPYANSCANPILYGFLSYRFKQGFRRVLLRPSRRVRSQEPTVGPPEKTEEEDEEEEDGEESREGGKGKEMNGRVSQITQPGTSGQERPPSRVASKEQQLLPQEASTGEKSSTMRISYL
Chain of Somatostatin receptor type 2 (P30874 whole entry): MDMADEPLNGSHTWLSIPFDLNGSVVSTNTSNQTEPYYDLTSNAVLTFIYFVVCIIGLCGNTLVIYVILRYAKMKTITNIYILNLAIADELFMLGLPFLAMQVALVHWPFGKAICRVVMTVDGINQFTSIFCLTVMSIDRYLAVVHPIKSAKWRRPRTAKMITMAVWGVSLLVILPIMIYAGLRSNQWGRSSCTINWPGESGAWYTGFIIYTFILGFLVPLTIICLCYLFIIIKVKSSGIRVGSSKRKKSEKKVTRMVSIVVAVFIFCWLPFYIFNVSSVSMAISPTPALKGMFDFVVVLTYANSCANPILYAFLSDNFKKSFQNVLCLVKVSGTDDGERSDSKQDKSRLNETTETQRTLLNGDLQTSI
Chain of Somatostatin receptor type 1 (P30872 whole entry): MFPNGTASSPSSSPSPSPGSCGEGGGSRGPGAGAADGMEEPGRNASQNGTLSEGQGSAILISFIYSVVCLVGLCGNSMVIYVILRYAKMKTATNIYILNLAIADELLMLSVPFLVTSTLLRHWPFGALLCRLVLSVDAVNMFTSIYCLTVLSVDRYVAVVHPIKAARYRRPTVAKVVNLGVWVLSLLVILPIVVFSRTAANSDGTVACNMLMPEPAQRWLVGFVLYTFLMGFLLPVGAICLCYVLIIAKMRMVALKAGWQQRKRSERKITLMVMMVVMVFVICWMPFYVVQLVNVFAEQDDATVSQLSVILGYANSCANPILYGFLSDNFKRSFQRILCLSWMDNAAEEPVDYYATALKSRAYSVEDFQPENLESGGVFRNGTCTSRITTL

Structure (SMILES)	Ki [1] [nM]	Ki [2] [nM]	Ki [3] [nM]	Ki [4] [nM]
CC(C)[C@@H]1NC(=O)[C@H](CCCCN)NC(=O)[C@@H](Cc2c[nH]c3ccccc23)NC(=O)[C@H](Cc2ccc(O)cc2)NC(=O)[C@@H](NC(=O)[C@H](N)Cc2ccc3ccccc3c2)CSSC[C@@H](C(=O)N[C@H](C(N)=O)[C@@H](C)O)NC1=O [3-(2-Naphtyl)-D-Ala-L-Cys(1)-L-Tyr-D-Trp-L-Lys-L-Val-L-Cys(1)-L-Thr-NH2]	–	43	1.8	–
CC(C)[C@H](NC(=O)[C@H](CCCCN)NC(=O)[C@@H](Cc1c[nH]c2ccccc12)NC(=O)[C@H](Cc1ccc(O)cc1)NC(=O)[C@H](Cc1ccc(Cl)cc1)NC(=O)[C@H](N)Cc1ccccc1)C(=O)N[C@@H](Cc1ccccc1)C(=O)N[C@H](C(N)=O)[C@@H](C)O [BIM 23057] (H-[dF][Phe(4-Cl)]Y[dW]KVFT-NH2)	–	–	1000	38.5
CC(O)C1NC(=O)C(CCCCN)NC(=O)C(Cc2c[nH]c3ccccc23)NC(=O)C(Cc2ccc(O)cc2)NC(=O)C(NC(=O)C(N)Cc2ccccc2)CSSCC(C(=O)NCc2cccc3ccccc23)NC1=O (configuration not stated) [BIM 23060] (H-FCYWKTC-{NH(1-naphthylmethyl)}; disulfide 2-7; configuration not given here)	61	14.6	0.71	56
CC[C@H](NC(=O)[C@@H](N)Cc1ccc(Cl)cc1)C(=O)N[C@@H](Cc1ccc(O)cc1)C(=O)N[C@H](Cc1c[nH]c2ccccc12)C(=O)N[C@@H](CCCCN)C(=O)N[C@H](C(=O)N[C@@H](C)C(=O)N[C@H](Cc1ccccc1)C(N)=O)C(C)C [BIM 23067] (H-[Phe(4-Cl)][Abu]Y[dW]KVA[dF]-NH2)	1000	14.6	44.4	1000
C[C@@H](O)[C@H](NC(=O)[C@H](Cc1ccccc1)NC(=O)[C@@H](NC(=O)[C@H](CCCCN)NC(=O)[C@@H](Cc1c[nH]c2ccccc12)NC(=O)[C@H](Cc1ccc(O)cc1)NC(=O)[C@H](Cc1ccc(Cl)cc1)NC(=O)[C@H](N)Cc1ccccc1)[C@@H](C)O)C(N)=O [BIM 23068] (H-[dF][Phe(4-Cl)]Y[dW]KTFT-NH2)	–	1.54	1.55	9.8
CC(C)[C@H](NC(=O)[C@H](CCCCN)NC(=O)[C@@H](Cc1c[nH]c2ccccc12)NC(=O)[C@H](Cc1ccc(O)cc1)NC(=O)[C@H](Cc1ccccc1)NC(=O)[C@H](N)Cc1ccccc1)C(=O)N[C@@H](Cc1ccccc1)C(=O)N[C@H](C(N)=O)[C@@H](C)O [BIM-23058] (H-[dF]FY[dW]KVFT-NH2)	115	1.4	9.8	8.3
CC(C)[C@@H]1NC(=O)[C@H](CCCCN)NC(=O)[C@@H](Cc2c[nH]c3ccccc23)NC(=O)[C@H](Cc2ccc(O)cc2)NC(=O)[C@@H](NC(=O)[C@H](N)Cc2ccccc2)CSSC[C@@H](C(=O)N[C@@H](Cc2c[nH]c3ccccc23)C(N)=O)NC1=O [CAS_71306] (H-[dF]CY[dW]KVCW-NH2; disulfide 2-7)	1000	30.9	5.4	45
C[C@@H](O)[C@H](NC(=O)[C@H](Cc1ccccc1)NC(=O)[C@@H](NC(=O)[C@H](CCCCN)NC(=O)[C@@H](Cc1c[nH]c2ccccc12)NC(=O)[C@H](Cc1ccc(O)cc1)NC(=O)[C@H](Cc1ccc(Cl)cc1)NC(=O)[C@H](N)Cc1ccc2ccccc2c1)[C@@H](C)O)C(N)=O [CAS_150155-63-8] (H-[d2Nal][Phe(4-Cl)]Y[dW]KTFT-NH2)	–	–	26.2	1000
CC(C)[C@H](NC(=O)[C@H](CCCCN)NC(=O)[C@@H](Cc1c[nH]c2ccccc12)NC(=O)[C@H](Cc1ccc(O)cc1)NC(=O)[C@H](C)NC(=O)[C@H](N)Cc1ccc(Cl)cc1)C(=O)N[C@@H](C)C(=O)N[C@@H](Cc1ccc2ccccc2c1)C(N)=O [CAS_150155-67-2] (H-[dPhe(4-Cl)]AY[dW]KVA[2Nal]-NH2)	–	–	55.5	1000
CC(C)[C@H](NC(=O)[C@H](CCCCN)NC(=O)[C@@H](Cc1c[nH]c2ccccc12)NC(=O)[C@H](Cc1ccc(O)cc1)NC(=O)[C@H](C)NC(=O)[C@H](N)Cc1ccc2ccccc2c1)C(=O)N[C@@H](C)C(=O)N[C@H](C(N)=O)[C@@H](C)O [D-Nal-Ala-Tyr-D-Trp-Lys-Val-Ala-Thr-NH2] (H-[d2Nal]AY[dW]KVAT-NH2)	–	13.1	5.9	1000
CC[C@@H]1NC(=O)[C@H](CCCCN)NC(=O)[C@@H](Cc2c[nH]c3ccccc23)NC(=O)[C@H](Cc2ccc(O)cc2)NC(=O)[C@@H](NC(=O)[C@H](N)Cc2ccccc2)CSSC[C@@H](C(=O)N[C@@H](Cc2ccc3ccccc3c2)C(N)=O)NC1=O [D-Phe-Cys-Tyr-D-Trp-Lys-Abu-Cys-Nal-NH] (H-[dF]CY[dW]K[Abu]C[2Nal]-NH2; disulfide 2-7)	1000	0.09	0.024	1000
CC[C@@H]1NC(=O)[C@H](CCCCN)NC(=O)[C@@H](Cc2c[nH]c3ccccc23)NC(=O)[C@H](Cc2ccc(O)cc2)NC(=O)[C@@H](NC(=O)[C@H](N)Cc2ccccc2)CSSC[C@@H](C(=O)N[C@H](C(N)=O)[C@@H](C)O)NC1=O [D-Phe-L-Cys(1)-L-Tyr-D-Trp-L-Lys-L-Abu-L-Cys(1)-L-Thr-NH2]	–	8.2	–	1000
CC(C)[C@H](NC(=O)[C@H](CCCCN)NC(=O)[C@@H](Cc1c[nH]c2ccccc12)NC(=O)[C@H](Cc1ccc(O)cc1)NC(=O)[C@H](Cc1ccccc1)NC(=O)[C@H](N)Cc1ccccc1)C(=O)N[C@@H](Cc1ccccc1)C(=O)N[C@H](Cc1ccccc1)C(N)=O [D-Phe-Phe-Tyr-D-Trp-Lys-Val-Phe-D-Phe-NH2] (H-[dF]FY[dW]KVF[dF]-NH2)	–	–	1000	500
CC(O)C1NC(=O)C(CCCCN)NC(=O)C(Cc2c[nH]c3ccccc23)NC(=O)C(Cc2ccccc2)NC(=O)C(NC(=O)C(N)Cc2ccccc2)CSSCC(C(=O)NCc2cccc3ccccc23)NC1=O (configuration not stated) [EC5-21] (H-FCFWKTC-{NH(1-naphthylmethyl)}; disulfide 2-7; configuration not given here)	–	69	0.028	207

Further lines, results first:

Ki [1] [nM]	Ki [2] [nM]	Ki [3] [nM]	Ki [4] [nM]	Structure (SMILES)
107	14.6	–	–	CC(C)[C@@H]1NC(=O)[C@H](CCCCN)NC(=O)[C@@H](Cc2c[nH]c3ccccc23)NC(=O)[C@H](Cc2ccc(O)cc2)NC(=O)[C@@H](C)N(C)C(=O)[C@H](Cc2ccccc2)NC1=O
–	7.7	2.7	27	CC1NC(=O)C(CCCCN)NC(=O)C(Cc2c[nH]c3ccccc23)NC(=O)C(Cc2ccc(O)cc2)NC(=O)C(NC(=O)C(N)Cc2ccccc2)CSSCC(C(=O)NCc2cccc3ccccc23)NC1=O (configuration not stated) [BIM 23034] (H-FCYWKAC-{NH(1-naphthylmethyl)}; disulfide 2-7; configuration not given here)
–	–	0.24	1000	CC(C)[C@@H]1NC(=O)[C@H](CCCCN)NC(=O)[C@@H](Cc2c[nH]c3ccccc23)NC(=O)[C@H](Cc2ccc(O)cc2)NC(=O)[C@@H](NC(=O)[C@H](N)Cc2ccc3ccccc3c2)CSSC[C@@H](C(=O)N[C@@H](Cc2ccc3ccccc3c2)C(N)=O)NC1=O [BIM 23042] (H-[d2Nal]CY[dW]KVC[2Nal]-NH2; disulfide 2-7)
–	–	1000	49	C[C@H](NC(=O)[C@H](N)Cc1ccccc1)C(=O)N[C@@H](Cc1ccccc1)C(=O)N[C@H](Cc1c[nH]c2ccccc12)C(=O)N[C@@H](CCCCN)C(=O)N[C@H](C(=O)N[C@@H](C)C(=O)N[C@H](C(N)=O)[C@@H](C)O)[C@@H](C)O [BIM 23051] (H-[dF]AF[dW]KTAT-NH2)
142	10.8	1000	16.6	CC(C)[C@H](NC(=O)[C@H](CCCCN)NC(=O)[C@@H](Cc1c[nH]c2ccccc12)NC(=O)[C@H](Cc1ccc(O)cc1)NC(=O)[C@H](Cc1ccccc1)NC(=O)[C@H](N)Cc1ccccc1)C(=O)N[C@@H](Cc1ccccc1)C(=O)N[C@H](Cc1cccc2ccccc12)C(N)=O [BIM 23056] (H-[dF]FY[dW]KVF[d1Nal]-NH2)
31.3	–	13.5	141	C[C@@H](O)[C@H](NC(=O)[C@H](Cc1ccccc1)NC(=O)[C@@H](NC(=O)[C@H](CCCCN)NC(=O)[C@@H](Cc1c[nH]c2ccccc12)NC(=O)[C@H](Cc1ccccc1)NC(=O)[C@H](Cc1ccccc1)NC(=O)[C@H](N)Cc1ccccc1)[C@@H](C)O)C(N)=O [CAS_133073-82-2] (H-[dF]FF[dW]KTFT-NH2)
41	11.5	0.4	58	C[C@@H](O)[C@H](NC(=O)[C@@H]1CSSC[C@H](NC(=O)[C@H](N)Cc2ccc3ccccc3c2)C(=O)N[C@@H](Cc2ccc(O)cc2)C(=O)N[C@H](Cc2c[nH]c3ccccc23)C(=O)N[C@@H](CCCCN)C(=O)N[C@@H]([C@@H](C)O)C(=O)N1)C(N)=O [D-Nal-c[Cys-Tyr-D-Trp-Lys-Thr-Cys]-Thr-NH2]
70.4	73	0.26	1000	CC(C)C1NC(=O)C(CCCCN)NC(=O)C(Cc2c[nH]c3ccccc23)NC(=O)C(Cc2ccc(O)cc2)NC(=O)C(NC(=O)C(N)Cc2cccc3ccccc23)CSSCC(C(=O)NC(CO)C(C)O)NC1=O (configuration not stated) [DC23-60] (H-[1Nal]CYWKVC[Thr(ol)]; disulfide 2-7; configuration not given here)
–	–	8.3	1000	CC(C)[C@H](NC(=O)[C@H](CCCCN)NC(=O)[C@@H](Cc1c[nH]c2ccccc12)NC(=O)[C@H](Cc1ccc(O)cc1)NC(=O)[C@H](C)NC(=O)[C@H](N)Cc1ccccc1)C(=O)N[C@@H](C)C(=O)N[C@@H](Cc1ccc2ccccc2c1)C(N)=O [L-Alaninamide,D-phenylalanyl-L-alanyl-L-tyrosyl-D-tryptophyl-L-lysyl-L-valyl-L-alanyl-3-(2-naphthalenyl)-(9CI)] (H-[dF]AY[dW]KVA[2Nal]-NH2)
